# pIC50: −log10 of the molar value.
# Molecular target: T1, Mammalian DNA-PK, isolated from Hela cell nuclear extract (Homo sapiens, UniProt P78527)
# T1 construct: Mammalian DNA-PK, isolated from Hela cell nuclear extract; endogenous in cells; host or cells: HeLa cell nuclear extract (purified per Gell and Jackson 1999)
# Assay: DNA-PK inhibition assay (33P-ATP, filter binding)
# Format: biochemical
# Details: not given
# Description: In order to assess the inhibitory action of the compounds against DNA-PK in vitro, the following assay was used to determine IC50 values.
# The total assay volume per well was 40 μl.
# After 10 minutes of incubation at 30° C. the reactions were initiated by the addition of Na-ATP (50 μM final), ^33p-γATP and a 30mer double stranded DNA oligonucleotide (10 ng/μl) in a volume of 10 μl. Designated positive and negative reaction wells were done in combination with compound wells (unknowns) in order to calculate % enzyme activities. The plates were then shaken for 2 minutes and incubated at 30° C. for 45 minutes.
# Following the incubation, the reactions were quenched by the addition of 50 μl 30% acetic acid to each well. The plates were then shaken for 5 minutes and the contents of each plate (80 μl from each well) transferred over to a 96 well Polyfiltronics filtration plate, containing P81-phosphocellulose membrane (TRADE MARK)(Whatman, UK). The solutions were vacuum pumped through the membrane and each well membrane washed four times using 300 μl of 15% acetic acid. The well membranes were then air dried and 20 μl of scintillant was added to each well.
# The plates were transferred to a TopCount NXT (TRADE MARK) (Packard, UK) for scintillation counting. Values recorded are counts per minute (cpm) following a 1 minute counting time for each well.
# The enzyme activity for each compound is then calculated using the following equation: […]
# These are determined over a range of different concentrations, normally from 10 μM down to 0.01 μM. Such IC50 values are used as comparative values to identify increased compound potencies.
row,Compound,pIC50
1,COc1ccc(-c2cccc3c(=O)cc(N4CCOCC4)oc23)cc1 [Compound 385],> 6.00
2,O=c1cc(N2CCOCC2)oc2c(-c3cccc(-c4ccccc4)c3)cccc12 [Compound 389],> 6.00
3,O=c1cc(N2CCOCC2)oc2c(-c3ccc(CO)cc3)cccc12 [Compound 394],> 6.00

# Same assay, conditions: IC50 of less than about 1 μM and/or % inhibition of more than about 50 at 1 μM; read-out: DNA-PK inhibition IC50 (particular efficacy)
row,Compound,pIC50
1,O=c1cc(N2CCOCC2)oc2cc(OCCS(=O)(=O)c3ccccc3)ccc12 [Compound 366],> 6.00
2,O=C1c2ccccc2C(=O)N1Cc1cccc(-c2ccc3c(=O)cc(N4CCOCC4)oc3c2)c1 [Compound 375],> 6.00
3,O=c1cc(N2CCOCC2)oc2c(-c3ccsc3)cccc12 [Compound 403],> 6.00
4,O=c1cc(N2CCOCC2)oc2c(-c3cc4ccccc4s3)cccc12 [Compound 408],> 6.00
5,CC(=O)c1ccc(-c2cccc3c(=O)cc(N4CCOCC4)oc23)s1 [Compound 409],> 6.00
6,O=c1cc(N2CCOCC2)oc2c(-c3cccc4c3oc3ccccc34)cccc12 [Compound 410],> 6.00

# Same assay, conditions: concentration at which 50% of the enzyme activity is inhibited; read-out: DNA-PK Inhibition IC50
row,Compound,pIC50
1,"O=c1cc(N2CCOCC2)oc2ccc(O)cc12 [Compound 343, 6-Hydroxy-2-(morpholin-4-yl)-chromen-4-one]",6.15

# Tested on: not given
# Assay: not given
# Details: not given
row,Compound,melting point
1,"O=c1cc(N2CCOCC2)cc(-c2ccccc2)o1 [Compound 1, 4-morpholin-4-yl-6-(phenyl)-pyran-2-one]",161 to 162 °C
2,"CC(C)(C)c1ccc(-c2cc(N3CCOCC3)cc(=O)o2)cc1 [Compound 2, 4-morpholin-4-yl-6-(4-(t-butyl)phenyl)-pyran-2-one]",230 to 232 °C
3,"COc1ccc(-c2cc(N3CCOCC3)cc(=O)o2)cc1 [Compound 3, 6-(4-methoxyphenyl)-4-morpholin-4-yl-pyran-2-one]",212 to 213 °C
4,"CC1CCC(C)N(c2cc(=O)n3ccc4ccccc4c3n2)C1 (stereo not drawn) [Compound 7, 2-(2,5-Dimethyl-piperidin-1-yl)pyrimido[2,1-a]isoquinolin-4-one]",214 to 216 °C
5,"O=c1cc(N2CCCC(CO)C2)nc2c3ccccc3ccn12 (stereo not drawn) [Compound 9, 2-(3-Hydroxymethyl-piperidin-1-yl)pyrimido[2,1-a]isoquinolin-4-one]",165 to 166 °C
6,"O=c1cc(NCC2CCCO2)nc2c3ccccc3ccn12 (stereo not drawn) [Compound 10, 2-[(Tetrahydro-furan-2-ylmethyl)-amino]pyrimido[2,1-a]isoquinolin-4-one]",174 to 175 °C
7,"O=c1cc(N(CCO)CCO)nc2c3ccccc3ccn12 [Compound 11, 2-[Bis-(2-hydroxy-ethyl)-amino]pyrimido[2,1-a]isoquinolin-4-one]",211 to 212 °C
8,"CN(CC(O)c1ccccc1)c1cc(=O)n2ccc3ccccc3c2n1 (stereo not drawn) [Compound 16, 2-[(2-Hydroxy-2-phenyl-ethyl)-methyl-amino]-pyrimido[2,1-a]isoquinolin-4-one]",195 to 196 °C
9,"CN(CCC#N)c1cc(=O)n2ccc3ccccc3c2n1 [Compound 17, 3-[Methyl-(4-oxo-4H-pyrimido[2,1-a]isoquinolin-2-yl)-amino]-propionitrile]",166 to 167 °C
10,"O=c1cc(NCCc2cccs2)nc2c3ccccc3ccn12 [Compound 18, 2-(2-Thiophen-2-yl-ethylamino)-pyrimido[2,1-a]isoquinolin-4-one]",162 to 163 °C
11,"O=c1cc(NCC(O)CO)nc2c3ccccc3ccn12 (stereo not drawn) [Compound 19, 2-(2,3-Dihydroxypropylamino)-pyrimido[2,1-a]isoquinolin-4-one]",215 to 216 °C
12,"CC(O)CNc1cc(=O)n2ccc3ccccc3c2n1 (stereo not drawn) [Compound 20, 2-(2-Hydroxypropylamino)-pyrimido[2,1-a]isoquinolin-4-one]",199 to 200 °C
13,"O=c1cc(NCC(O)c2cccc(O)c2)nc2c3ccccc3ccn12 (stereo not drawn) [Compound 21, 2-[2-Hydroxy-2-(3-hydroxy-phenyl)-ethylamino]-pyrimido[2,1-a]isoquinolin-4-one]",159 to 161 °C
14,"O=c1cc(NCCO)nc2c3ccccc3ccn12 [Compound 22, 2-(2-Hydroxy-ethylamino)-pyrimido[2,1-a]isoquinolin-4-one]",218 to 221 °C

# From patent US7674823B2, “DNA-PK inhibitors” (Cancer Research Technology Limited, priority 2001, dated 2010)
